The values that follow come from patent US20240238266A1 (Novartis AG, priority 2021, published 2024).

Data set [1] can be described thus: Human absorption, distribution, metabolism, and excretion (ADME) study in healthy volunteers. The class given is in vivo.
A further data set concerns AP. The note with it: multiple in vitro and in vivo non-clinical studies (Schubart 2019); cited from earlier work.
A further data set has as its system AP activity (Wieslab). Kind of data set: First in human (FIH) studies: suppression of AP activity (Wieslab). The class given is in vivo.
Data set [2] relates to organic anion-transporting polypeptide (OATP) hepatic uptake transporter. Kind of data set: Preclinical studies of systemic disposition: hepatic uptake transporter. The class given is in vitro ADME. From the text:
In addition, some contribution from direct kidney (approximately 20%) and direct biliary excretion (around 5 to 10%) is anticipated. Iptacopan is also a substrate for the organic anion-transporting polypeptide (OATP) hepatic uptake transporter. […] Typical examples are digoxin, quinidine, paclitaxel, fentanyl and phenytoin. However, if no alternative treatment is available, a staggered dosing approach is recommended (refer to Section 6.2.1.1). • · Concomitant medication listed under exclusion criteria 25 and 26 is prohibited except for the condition specified in the criterion.

Data set [3] in a line: Food effect in study CLNP023X2101. Format: in vivo.

Turning to `CCO[C@H]1CCN(Cc2c(OC)cc(C)c3[nH]ccc23)[C@H](c2ccc(C(=O)O)cc2)C1` [iptacopan, 4-((2S,4S)-(4-ethoxy-1-((5-methoxy-7-methyl-1H-indol-4-yl)methyl)piperidin-2-yl))benzoic acid], in data set [1], the “direct kidney excretion, share of overall iptacopan dose” value is 20-25% and the “kidney contribution to the overall iptacopan clearance” value is recorded as 20-25%. In addition, the “inhibition of the AP” value in the data set with AP is listed as “demonstrated inhibition of the AP”. For the same molecule, in the data set with AP activity (Wieslab) (about 200 mg b.i.d, in most participants, model developed with FIH data in healthy volunteers), the “inhibition of the AP (Wieslab assay) predicted by exposure-response model” value is given as more than 90%. In the data set with AP activity (Wieslab) (over 14 days of dosing at 200 mg b.i.d), the “suppression of the AP (inhibition), sustained” value was not below 80%. The “inhibition of AP activity (Wieslab)” value in the data set on AP activity (Wieslab) (two hours post-dose, single dose of 200 mg, FIH study participants) is reported as not below 80%. Also, in data set [2], the “substrate of OATP hepatic uptake transporter” value is “substrate”. The food effect entry in data set [3] was “no food effect”.
